Measured values: PMC5642494 (Oncotarget, 2017)
pEC50: −log10 of the molar value. Where two headings read alike, the source gives them in different places.

Experiments:
H3K9me3 = experiment: Hypermethylation of histone H3 at lysine 9 (H3K9me3), EFM-19; type: cell-based, human; conditions: 2 DT, n = 1, read-out: EC50 H3K9me3 levels
Description: Relative IC50/EC50 values were determined by curve fitting to a four parameter logistic equation: Y = bottom + ((top-bottom)/ (1+exp(HillSlope*(X – LnIC50)), where X is the natural log of dose/concentration, Y is response, decreasing as X increases, top and bottom are plateaus in the same units as Y, lnIC50 is the natural log of potency, in the same log units as X, and HillSlope measures the steepness of the curve. Data were plotted using GraphPad Prism.
BioResearch) where indicated; the dates of acquisition and in an Acumen Explorer Ex3 (TTP Labtech), raw data testing are listed in parentheses: ZR-75-1; T-47D; MDA- were analyzed with Cellista software and then further MB-468; HCC70; BT-549; BT-20; MDA-MB-231; MDA- normalized in Excel against the values obtained for cells MB-175-VII, HCC-1937; MDA-MB-415. treated with 2 µM BEZ235, or vehicle (0.2% v/v DMSO); data were graphed using GraphPad Prism®. Images were SA-β-galactosidase immunocytochemical labeling taken by fluorescent microscopy using a Leica DMiL. […]
SA-β-gal Cell samples were lysed after treatment with expression was determined using the Senescence Cells 100 µL lysis buffer and transferred to a 96-well plate. […]
(BSA) (Invitrogen #15260-037) for 1 hour at 25°C. EdU Samples were analyzed by LC─MS/MS under the detection was performed using the Click-iT High Content conditions described below. […]

MCF7 cells = experiment: Annexin V/PI flow cytometry, MCF7; type: cell-based, human; conditions: 3 DT (untreated 11.1%)
Description: Annexin V/PI staining was performed following the vendor’s specifications in MCF7 and MDA-MB-361 cells. […] Raw data were analyzed with FlowJo X software. Events were gated for debris exclusion and singlets selection. A minimum of 10,000 cells were analyzed per sample.

SMILES: CCN1CCN(Cc2ccc(Nc3ncc(F)c(-c4cc(F)c5nc(C)n(C(C)C)c5c4)n3)nc2)CC1 [abemaciclib, Abemaciclib]
- pEC50 (H3K9me3; EFM-19): 7.64
- pEC50 (H3K9me3; Homo sapiens, EFM-19, EFM-19): 7.64
- cells positive for annexin V (MCF7 cells; 0.5 µM): 41.4%
- cells positive for annexin V (MCF7 cells; 2 µM): 66.7%
